Results: ChEMBL document CHEMBL1153470, “Design, synthesis, and biological evaluation of 16-substituted 4-azasteroids as tissue-selective androgen receptor modulators (SARMs)” (J Med Chem, 2009)
≈ marks a conversion by molar mass, not a printed value.

Key:
[1] = Clearance in Beagle dog at 0.2 mg/kg, iv; type: ADME, organism-based, Canis lupus familiaris; design: dose 0.2 mg/kg, route intravenous; details: in vivo
[2] = Half life in Beagle dog at 0.2 mg/kg, iv; type: ADME, organism-based, Canis lupus familiaris; design: dose 0.2 mg/kg, route intravenous; details: in vivo
[3] = AUC in ovariectomized Sprague-Dawley rat at 1 mg/kg, sc; details: female, plasma
[4] = Aqueous solubility at pH 2; type: physicochemical
[5] = Oral bioavailability in Beagle dog at 1 mg/kg; type: ADME, organism-based, Canis lupus familiaris; details: in vivo
[6] = AUC in orchidectomized Sprague-Dawley rat at 30 mg/kg, sc; type: ADME, organism-based; design: dose 30 mg/kg, route subcutaneous; details: male, plasma
[7] = AUC in ovariectomized Sprague-Dawley rat at 10 mg/kg, sc; type: ADME, organism-based; design: dose 10 mg/kg, route subcutaneous; details: female, plasma
[8] = AUC in orchidectomized Sprague-Dawley rat at 10 mg/kg, sc; type: ADME, organism-based; design: dose 10 mg/kg, route subcutaneous; details: male, plasma
in vivo [9] = details: male, Sprague-Dawley, rat, plasma, sc, 3 mg/kg
in vivo [10] = details: female, Sprague-Dawley, rat, plasma, sc, 3 mg/kg

## CNc1ncc(/C=C2\C[C@H]3[C@@H]4CC[C@H]5N(C)C(=O)C=C[C@]5(C)[C@H]4CC[C@]3(C)[C@H]2O)cn1
[1]
  clearance: 0.8 mL/min/kg
[2]
  half-life: 10.9 h

## CN1C(=O)C=C[C@]2(C)[C@H]3CC[C@]4(C)[C@@H](O)/C(=C/c5cc(F)cc(F)c5)C[C@H]4[C@@H]3CC[C@@H]12
[1]
  clearance: 6.8 mL/min/kg
[2]
  half-life: 9.1 h

## Cc1ncc(/C=C2\C[C@H]3[C@@H]4CC[C@H]5N(C)C(=O)C=C[C@]5(C)[C@H]4CC[C@]3(C)[C@H]2O)cn1
[3]
  AUC: 17 µM·h
[1]
  clearance: 1.5 mL/min/kg
[4]
  solubility: 230 µg/mL (≈ 564 µM)
[2]
  half-life: 18.7 h

## CN1C(=O)C=C[C@]2(C)[C@H]3CC[C@]4(C)[C@@H](O)/C(=C/c5cccnc5)C[C@H]4[C@@H]3CC[C@@H]12
[1]
  clearance: 5 mL/min/kg
[5]
  bioavailability: 21%
[2]
  half-life: 17.1 h

## CN1C(=O)C=C[C@]2(C)[C@H]3CC[C@]4(C)[C@@H](O)/C(=C/c5cncnc5)C[C@H]4[C@@H]3CC[C@@H]12
[6]
  AUC: 16.2 µM·h
[1]
  clearance: 15.3 mL/min/kg
[5]
  bioavailability: 51%
[4]
  solubility: 570 µg/mL (≈ 1450 µM)
[7]
  AUC: 17 µM·h
[2]
  half-life: 2.3 h
[8]
  AUC: 4.3 µM·h

## CN1C(=O)C=C[C@]2(C)[C@H]3CC[C@]4(C)[C@@H](O)CC[C@H]4[C@@H]3CC[C@@H]12
[1]
  clearance: 32.3 mL/min/kg
[2]
  half-life: 0.7 h

## C/C=C1\C[C@H]2[C@@H]3CC[C@H]4N(C)C(=O)C=C[C@]4(C)[C@H]3CC[C@]2(C)[C@H]1O
[1]
  clearance: 42.8 mL/min/kg
[2]
  half-life: 1 h

## CN1C(=O)C=C[C@]2(C)[C@H]3CC[C@]4(C)[C@@H](O)/C(=C/c5cccc(F)c5)C[C@H]4[C@@H]3CC[C@@H]12
[1]
  clearance: 15.2 mL/min/kg
[2]
  half-life: 4.9 h

## C[C@]12CCC(=O)C[C@@H]1CC[C@@H]1[C@@H]2CC[C@]2(C)[C@@H](O)CC[C@@H]12 [STANOLONE]
In vivo [9]
  AUC: 0.08 µM·h
In vivo [10]
  AUC: 0.02 µM·h

## C[C@@H]1C[C@H]2[C@@H]3CC[C@H]4N(C)C(=O)C=C[C@]4(C)[C@H]3CC[C@]2(C)[C@H]1O
[1]
  clearance: 20.2 mL/min/kg
[2]
  half-life: 1 h

## CN1C(=O)C=C[C@]2(C)[C@H]3CC[C@]4(C)[C@@H](O)[C@H](Cc5cccc(F)c5)C[C@H]4[C@@H]3CC[C@@H]12
[1]
  clearance: 22 mL/min/kg
[2]
  half-life: 3 h

## COc1ncc(/C=C2\C[C@H]3[C@@H]4CC[C@H]5N(C)C(=O)C=C[C@]5(C)[C@H]4CC[C@]3(C)[C@H]2O)cn1
[1]
  clearance: 4.6 mL/min/kg
[2]
  half-life: 12.7 h

## COC[C@@H]1C[C@H]2[C@@H]3CC[C@H]4N(C)C(=O)C=C[C@]4(C)[C@H]3CC[C@]2(C)[C@H]1O
[1]
  clearance: 11 mL/min/kg
[2]
  half-life: 1.5 h
